# Reference: publication PMC7993833, “EDP-938, a novel nucleoprotein inhibitor of respiratory syncytial virus, demonstrates potent antiviral activities in vitro and in a non-human primate model” (PLoS Pathogens, 2021)
# System: RSV-A and RSV-B laboratory strains
# Test: RT-qPCR assay, RSV laboratory strains across primate cell lines
# Assay type: cell-based
# Conditions: human respiratory syncytial virus, in Primates, read-out: EC50 values, reduction in viral load by RT-qPCR (range over strains and cells)
# Procedure: The activity of EDP-938 against both RSV-A and RSV-B was evaluated in vitro against multiple laboratory strains commonly used for antiviral screens in HEp-2 cells, human adenocarcinomic alveolar basal epithelial cells (A549), monkey kidney-derived cells (Vero), and Baby Hamster Kidney cells (BHK). Serial dilutions of the compound were added to cells infected with RSV-A at a MOI of 0.1 or RSV-B at an MOI of 0.5 and treated for 5 or 6 days, respectively.
# HEp-2, Vero, and BHK were seeded at 8,000 cells per well (cpw) in growth medium (Dulbecco’s Modified Eagle Medium (DMEM) with 1% GlutaMAX, 1% Penicillin/Streptomycin (P/S), 1% Non-Essential Amino Acids (NEAA), 10% Fetal Bovine Serum (FBS)) or (Minimum Essential Medium (MEM) with 10% FBS, 1% NEAA, 1% P/S) or (Eagle’s Minimum Essential Medium with L-Glutamine, with 10% FBS, 1% P/S) respectively. A549 seeded at 3,000 cpw in F-12K Kaighn’s Modification nutrient mixture with 10% FBS, 1% NEAA, 1% P/S. Cells seeded at time of infection in 96-well plates, final well volume 100μL. Compounds suspended in DMSO, serially diluted and added to wells at 0.5% final DMSO concentration. […] Cytopathic effect (CPE) determined using ATPlite (Perkin Elmer) measured with Envision luminometer. […] All EC50s were calculated using the XLFit four-parameter logistic model 200 in Microsoft Excel.
smiles,measurement,value
O=C1Nc2ccccc2C(c2ccccc2)=N[C@@H]1Nc1nnc(-c2ncc(C(F)(F)F)cc2N2CCOCC2)o1 [EDP-938],EC50,54 to 110 nM
